Data: patent US20040255344A1, “Rodent with urinary disturbance and method of constructing the same, and method of screening remedy for urinary disturbance using the rodent” (priority 2001, published 2004)
Where a name gives a salt, the structure may show the parent alone.

Test system: urinary dysfunction model rat
Experiment: screening test in urinary dysfunction model rat (superior colliculus lesion), cystometrography
Format: in vivo
Conditions: 0.3 mg/kg iv, 5 minutes after intravenous administration, FIG. 9
Description: FIG. 3 indicates a schematic diagram of a system to measure the status of accelerated urinary reflex used in the present invention.
Here, a cystometrogram is made when detecting the urinary reflex by putting a catheter (not indicated in the diagram) in the bladder, and continuously measuring the changes of internal bladder pressure through the said catheter.
Further, the volume of the bladder can be calculated from the results of this cystometrogram as follows. Specifically, when infusing physiological saline into the bladder at a constant rate, the volume of the bladder can be calculated by multiplying the time required to reach the threshold where the urinary reflex starts by the fixed rate.
An urinary dysfunction model rat was produced by the following method. […]
After the operation was complete and the animals had awakened from the anesthesia, the post-operative rat was measured using cystometrography based on the system indicated in FIG. 3, and the status of accelerated urinary reflex was confirmed.
Using a control rat and the rat produced under adequate conditions based on the present invention, the presence of a therapeutic effect was assessed after intravenously administering oxybutynin hydrochloride (0.3 mg/kg iv:iv means intravenous injection, and iv means the same in FIG. 9.), which is a candidate compound as a therapeutic agent for urinary dysfunction. […]

Q: What does the source list for CCN(CC)CC#CCOC(=O)C(O)(c1ccccc1)C1CCCCC1 (centres unmarked) [oxybutynin hydrochloride]?
A: bladder volume: increased; level of the urinary dysfunction: improved
